# Source: PMC8151276, “An Integrated Approach toward NanoBRET Tracers for Analysis of GPCR Ligand Engagement” (Molecules, 2021)
# Tests used:
# Type in all cases: binding
# SSTR4 = molecular target: T1, SSTR4 (Homo sapiens, UniProt P31391); assay: NanoBRET screen HiBiT-SSTR4 in HEK293
# T1 construct: purchased Promega (in-house HiBiT-GPCR construct library, NanoBRET)
# Procedure: (§1) Each tracer candidate was screened across the entire library of HiBiT-GPCR constructs using NanoBRET as the detection modality. As depicted in Figure 4A, the specificity of interactions was evaluated through decrease in BRET due to competitive displacement of a bound tracer by excess parental compound. Each tracer was analyzed for binding to each HiBiT-GPCR fusion in the absence and in the presence of competing parental compound. Briefly, HEK293 cells were transfected with HiBiT-GPCR constructs diluted into promoterless DNA to reduce expression and maximize translocation to the cell surface. Each tracer candidate was then screened at concentrations of 1 μM and 0.1 μM across cells expressing these fusions. Cells were treated for 1.5 h with tracer either alone or in the presence of 20 μM competing parental compound (i.e., control). BRET was measured upon addition of purified LgBiT and subsequent complementation with HiBiT genetically fused to a GPCR. The specificity of interactions was assessed through a decrease in BRET signal due to competitive displacement of the bound tracer. To further gauge the robustness of these interactions, the fold response over the control (i.e., BRETtracer/BRETcontrol) was calculated. We chose a 1.5-fold response, which translates to ≥7-fold signal over noise as the minimal threshold required to score an interaction as positive. […]. Below we highlight the screening results obtained for our exemplary fluorescent tracers based on Clozapine, Amitriptyline and AZD1283.
# (§2) HiBiT-GPCR DNA constructs were diluted in 10 mM Tris pH 8 to a final concentration of 0.01 μg/μL, arrayed in 96-well plates and stored at −20 °C. For transfection, HEK293 cells were suspended in Opti-MEM (without phenol red) supplemented with 2% fetal bovine serum (Seradigm) and 100 units/mL penicillin–streptomycin (Gibco) at a final concentration of 220,000 cells/mL and dispensed into white 96-well plates at 90 μL/well. Subsequent transfections and screens were carried using an Agilent Bravo Automated Liquid Handling Platform. First, the 96-well HiBiT DNA arrays were diluted 25-fold in Opti-MEM (without serum or phenol red) to a final concentration of 0.0004 μg/μL and 20 μL of the diluted DNAs were transferred into new 96-well plates. Next, promoterless carrier DNA (1 μg/μL) was diluted 25-fold (0.04 μg/μL) and then dispensed into the diluted arrays at 20 μL/well. Following brief mixing, Viafect transfection reagent (Promega) diluted 16-fold into Opti-MEM was dispensed into the plates at 40 μL/well. After mixing by pipetting, plates were incubated for 10 min on the pipetting station deck. The DNA-transfection reagent complexes were then added to plates containing cells. To facilitate the screen, 10 μL of DNA-transfection reagent complexes were added in duplicates to the top 4 and bottom 4 rows, resulting in two identical 48-well arrays per plate. Plates with transfected cells were incubated for 18–20 h at 37 °C/5% CO2. A screen of each tracer across the entire library using two different concentrations requires duplicate plates of transfected cells. Depending on the number of tracers being screened, transfections can be scaled up using the same ratios. The next day, for each tracer, four 20× screening solutions in tracer dilution buffer (Promega) were prepared: two duplicates at final concentration of 20 μM and two duplicates at a final concentration of 2 μM. A competing unmodified compound was added to one of each duplicate at a final concentration of 400 μM. The four resulting solutions were diluted 4-fold in Opti-MEM without serum or phenol red to generate 5× solutions (5 µM and 0.5 µM tracer +/− 100 μM competing compound). To screen the library, a BioTek MultiFlo FX liquid dispenser was used to dispense 22.5 µL of tracer solution to the top 4 rows and 22.5 µL tracer + competing compound solution to the 4 bottom rows. Plates were briefly mixed on an orbital shaker and incubated for 1.5 h at room temperature. […]
# GRM4 = molecular target: T2, GRM4 (Homo sapiens, UniProt Q14833); assay: NanoBRET screen HiBiT-GRM4 in HEK293; conditions: GRM4
# T2 construct: purchased Promega (in-house HiBiT-GPCR construct library, NanoBRET)
# Procedure: as §1, §2
# PTGER2 = molecular target: T3, PTGER2 (Homo sapiens, UniProt P43116); assay: NanoBRET screen HiBiT-PTGER2 in HEK293
# T3 construct: purchased Promega (in-house HiBiT-GPCR construct library, NanoBRET)
# Procedure: as §1, §2
# PTAFR = molecular target: T4, PTAFR (Homo sapiens, UniProt P25105); assay: NanoBRET screen HiBiT-PTAFR in HEK293
# T4 construct: purchased Promega (in-house HiBiT-GPCR construct library, NanoBRET)
# Procedure: as §1, §2
# FZD2 = molecular target: T5, FZD2 (Homo sapiens, UniProt Q14332); assay: NanoBRET screen HiBiT-FZD2 in HEK293
# T5 construct: purchased Promega (in-house HiBiT-GPCR construct library, NanoBRET)
# Procedure: as §1, §2
# CCKBR = molecular target: T6, CCKBR (Homo sapiens, UniProt P32239); assay: NanoBRET screen HiBiT-CCKBR in HEK293
# T6 construct: purchased Promega (in-house HiBiT-GPCR construct library, NanoBRET)
# T6 sequence (P32239 1-447): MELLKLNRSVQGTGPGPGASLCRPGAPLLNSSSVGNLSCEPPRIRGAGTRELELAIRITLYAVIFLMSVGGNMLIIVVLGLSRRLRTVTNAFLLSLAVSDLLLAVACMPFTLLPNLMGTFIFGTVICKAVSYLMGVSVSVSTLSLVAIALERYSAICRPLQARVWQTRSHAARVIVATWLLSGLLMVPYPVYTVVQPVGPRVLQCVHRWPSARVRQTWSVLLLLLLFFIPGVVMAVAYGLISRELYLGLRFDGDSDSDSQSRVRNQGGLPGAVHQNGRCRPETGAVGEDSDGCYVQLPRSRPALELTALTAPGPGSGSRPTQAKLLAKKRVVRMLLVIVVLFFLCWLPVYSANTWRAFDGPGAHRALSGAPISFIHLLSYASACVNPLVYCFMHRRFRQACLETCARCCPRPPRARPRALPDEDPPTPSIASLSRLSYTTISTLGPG
# Procedure: as §1, §2
# [1] = tracer at 0.1μM, listed as amitriptyline-b-2-NB590
# [2] = tracer at 1μM, listed as amitriptyline-b-2-NB590
# T5 sequence (Q14332 24-565): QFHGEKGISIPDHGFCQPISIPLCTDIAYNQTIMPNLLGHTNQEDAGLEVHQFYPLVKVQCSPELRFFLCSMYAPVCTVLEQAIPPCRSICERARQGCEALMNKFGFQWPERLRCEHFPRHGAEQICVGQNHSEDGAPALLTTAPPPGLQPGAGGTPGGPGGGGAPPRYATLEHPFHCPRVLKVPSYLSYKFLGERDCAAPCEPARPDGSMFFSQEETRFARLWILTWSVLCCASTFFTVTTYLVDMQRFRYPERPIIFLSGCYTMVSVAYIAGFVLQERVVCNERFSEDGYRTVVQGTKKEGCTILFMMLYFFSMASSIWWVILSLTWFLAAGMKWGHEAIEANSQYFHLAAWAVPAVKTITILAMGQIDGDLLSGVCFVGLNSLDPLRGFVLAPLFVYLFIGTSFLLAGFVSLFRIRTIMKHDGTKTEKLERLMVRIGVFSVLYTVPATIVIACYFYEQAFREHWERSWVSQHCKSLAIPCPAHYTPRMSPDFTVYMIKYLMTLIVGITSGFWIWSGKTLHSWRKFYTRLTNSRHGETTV
# T1 sequence (P31391 whole entry): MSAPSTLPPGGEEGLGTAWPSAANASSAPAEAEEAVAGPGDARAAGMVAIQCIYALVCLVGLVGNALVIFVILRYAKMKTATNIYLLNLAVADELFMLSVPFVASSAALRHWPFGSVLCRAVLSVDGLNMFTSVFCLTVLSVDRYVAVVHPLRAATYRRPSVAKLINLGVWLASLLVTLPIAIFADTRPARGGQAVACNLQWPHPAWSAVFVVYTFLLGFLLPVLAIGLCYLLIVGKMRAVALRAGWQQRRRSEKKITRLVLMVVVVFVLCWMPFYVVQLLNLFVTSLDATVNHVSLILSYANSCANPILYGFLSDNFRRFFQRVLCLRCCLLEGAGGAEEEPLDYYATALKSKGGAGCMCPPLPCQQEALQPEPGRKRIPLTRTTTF
# T3 sequence (P43116 whole entry): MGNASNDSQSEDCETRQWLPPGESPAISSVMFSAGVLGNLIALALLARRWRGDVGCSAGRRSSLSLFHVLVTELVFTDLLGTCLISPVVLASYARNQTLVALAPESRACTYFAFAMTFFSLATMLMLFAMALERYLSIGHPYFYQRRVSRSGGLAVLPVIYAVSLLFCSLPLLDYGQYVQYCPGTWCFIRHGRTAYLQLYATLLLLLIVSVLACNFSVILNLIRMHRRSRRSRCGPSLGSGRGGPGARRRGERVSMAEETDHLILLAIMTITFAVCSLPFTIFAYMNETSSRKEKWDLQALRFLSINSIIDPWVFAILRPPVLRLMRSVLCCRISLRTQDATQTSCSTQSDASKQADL
# T4 sequence (P25105 whole entry): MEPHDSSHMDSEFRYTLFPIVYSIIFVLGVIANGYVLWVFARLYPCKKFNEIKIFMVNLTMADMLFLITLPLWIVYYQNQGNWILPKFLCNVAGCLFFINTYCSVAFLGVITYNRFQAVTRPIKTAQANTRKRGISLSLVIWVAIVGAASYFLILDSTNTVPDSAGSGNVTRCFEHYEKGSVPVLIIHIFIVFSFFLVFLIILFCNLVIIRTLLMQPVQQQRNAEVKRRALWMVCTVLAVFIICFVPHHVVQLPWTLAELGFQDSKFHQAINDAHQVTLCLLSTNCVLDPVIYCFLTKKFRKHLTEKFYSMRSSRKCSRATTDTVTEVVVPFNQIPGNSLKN
# T2 sequence (Q14833 33-912): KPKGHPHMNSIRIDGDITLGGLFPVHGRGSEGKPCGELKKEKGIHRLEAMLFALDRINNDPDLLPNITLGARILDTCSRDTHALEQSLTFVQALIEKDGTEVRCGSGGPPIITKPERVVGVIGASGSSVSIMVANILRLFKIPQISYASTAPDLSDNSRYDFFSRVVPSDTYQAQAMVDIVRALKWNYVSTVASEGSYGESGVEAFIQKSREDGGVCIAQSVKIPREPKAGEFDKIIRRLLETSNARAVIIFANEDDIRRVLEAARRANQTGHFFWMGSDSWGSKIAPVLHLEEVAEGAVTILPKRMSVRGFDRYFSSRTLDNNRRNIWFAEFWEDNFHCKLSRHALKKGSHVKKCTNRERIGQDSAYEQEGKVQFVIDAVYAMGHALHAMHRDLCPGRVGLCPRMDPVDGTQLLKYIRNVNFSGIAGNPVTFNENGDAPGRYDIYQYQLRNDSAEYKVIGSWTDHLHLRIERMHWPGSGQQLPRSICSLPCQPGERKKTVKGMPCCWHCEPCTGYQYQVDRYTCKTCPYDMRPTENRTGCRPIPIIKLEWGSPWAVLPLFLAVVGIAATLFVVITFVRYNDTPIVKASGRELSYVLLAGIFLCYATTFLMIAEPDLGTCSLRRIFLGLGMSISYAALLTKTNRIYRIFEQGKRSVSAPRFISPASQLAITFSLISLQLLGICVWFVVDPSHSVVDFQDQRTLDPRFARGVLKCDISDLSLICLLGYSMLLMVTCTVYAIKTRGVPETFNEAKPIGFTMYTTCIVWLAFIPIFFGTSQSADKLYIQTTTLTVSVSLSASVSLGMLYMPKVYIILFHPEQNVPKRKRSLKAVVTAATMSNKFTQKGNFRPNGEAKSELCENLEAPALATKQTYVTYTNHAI
SMILES,NanoBRET Fold Response (SSTR4; tracer at 0.1μM),NanoBRET Fold Response (SSTR4; tracer at 1μM),NanoBRET Fold Response (GRM4; tracer 0.1μM),NanoBRET Fold Response (GRM4; tracer 1μM),"NanoBRET Fold Response (SSTR4; SSTR4, tracer 0.1μM)","NanoBRET Fold Response (SSTR4; SSTR4, tracer 1μM)","NanoBRET Fold Response (PTGER2; PTGER2, tracer 0.1μM)","NanoBRET Fold Response (PTGER2; PTGER2, tracer 1μM)","NanoBRET Fold Response (PTAFR; PTAFR, tracer 0.1μM)","NanoBRET Fold Response (PTAFR; PTAFR, tracer 1μM)","NanoBRET Fold Response (FZD2; FZD2, tracer 0.1μM)","NanoBRET Fold Response (FZD2; FZD2, tracer 1μM)","NanoBRET Fold Response (CCKBR; CCKBR, tracer 0.1μM)","NanoBRET Fold Response (CCKBR; CCKBR, tracer 1μM)",NanoBRET Fold Response (PTAFR; tracer at 1μM),NanoBRET Fold Response (FZD2; tracer at 1μM),NanoBRET Fold Response (CCKBR; tracer at 1μM),other results
CN(C)CCC=C1c2ccccc2CCc2ccc(C(=O)NCCNC(=O)CCOCCOCCOCCOCCNC(=O)CCc3ccc4n3[B-](F)(F)[N+]3=C(c5ccc[nH]5)C=CC3=C4)cc21 [Amitriptyline-b-2-NB590],1.16,0.99,0.96,0.95,–,–,–,–,–,–,–,–,–,–,–,–,–,NanoBRET Fold Response (PTGER2; tracer at 0.1μM): 1.01; NanoBRET Fold Response (PTGER2; tracer at 1μM): 1.01; NanoBRET Fold Response (PTAFR; [1]): 0.92; NanoBRET Fold Response (PTAFR; [2]): 1.02; NanoBRET Fold Response (FZD2; [1]): 1.03; NanoBRET Fold Response (FZD2; [2]): 0.94; NanoBRET Fold Response (CCKBR; [1]): 1.10; NanoBRET Fold Response (CCKBR; [2]): 1.09
O=C(CCOCCOCCOCCOCCNC(=O)CCc1ccc2n1[B-](F)(F)[N+]1=C(c3ccc[nH]3)C=CC1=C2)NCCCN1CCN(C2=Nc3ccccc3Oc3ccc(Cl)cc32)CC1 [Loxapine-a-2-NB590],–,–,1.04,0.99,1.00,1.09,1.03,1.03,1.10,1.09,1.07,1.05,1.05,0.98,–,–,–,–
CN(C)CCC=C1c2ccccc2CCc2ccc(C(=O)NCCNC(=O)CCOCCOCCOCCOCCNC(=O)CCc3ccc4n3[B-](F)(F)[N+]3=C(c5ccc[nH]5)C=CC3=C4)cc21 [Amitriptyline-a-2-NB590],1.09,1.09,–,–,–,–,–,–,–,–,–,–,–,–,0.90,1.00,0.98,NanoBRET Fold Response (PTAFR; tracer at 0.1μM): 1.10; NanoBRET Fold Response (FZD2; tracer at 0.1μM): 1.04; NanoBRET Fold Response (CCKBR; tracer at 0.1μM): 1.02
O=C(CCc1ccc2n1[B-](F)(F)[N+]1=C(c3ccc[nH]3)C=CC1=C2)NCCOCCOCCNC(=O)OCCOCCN1CCN(C2=Nc3ccccc3Sc3ccccc32)CC1 [Quetiapine-a-2-NB590],–,–,0.99,0.92,0.99,0.83,0.96,1.05,1.05,1.13,0.96,0.89,1.05,0.93,–,–,–,–
CN(CCC=C1c2ccccc2CCc2ccccc21)C(=O)CCOCCOCCOCCOCCNC(=O)CCc1ccc2n1[B-](F)(F)[N+]1=C(c3ccc[nH]3)C=CC1=C2 [Amitriptyline-e-2-NB590],–,–,–,–,–,–,–,–,–,–,–,–,–,–,1.06,1.03,1.02,–
